Source: ChEMBL document CHEMBL4507275, “Data for DCP probe BI-2545” (2021)

Legend:
[1] = biological target: Serine/threonine-protein kinase pim-1 (Homo sapiens) (UniProt P11309); settings: Compound concentration 1000.0 nM
[2] = biological target: Dual specificity protein kinase TTK (Homo sapiens) (UniProt P33981); settings: Compound concentration 1000.0 nM
[3] = biological target: Dual serine/threonine and tyrosine protein kinase (Homo sapiens) (UniProt Q6XUX3); settings: Compound concentration 1000.0 nM
[4] = biological target: Ephrin type-A receptor 5 (Homo sapiens) (UniProt P54756); settings: Compound concentration 1000.0 nM
[5] = biological target: Myosin-IIIa (Homo sapiens) (UniProt Q8NEV4); settings: Compound concentration 1000.0 nM
[6] = biological target: Mitogen-activated protein kinase kinase kinase kinase 1 (Homo sapiens) (UniProt Q92918); settings: Compound concentration 1000.0 nM
[7] = biological target: 5-hydroxytryptamine receptor 1D (Homo sapiens) (UniProt P28221); settings: Compound concentration 10.0 uM
[8] = biological target: Serine/threonine-protein kinase tousled-like 1 (Homo sapiens) (UniProt Q9UKI8); settings: Compound concentration 1000.0 nM
[9] = biological target: Ephrin type-B receptor 4 (Homo sapiens) (UniProt P54760); settings: Compound concentration 1000.0 nM
[10] = biological target: Phosphatidylinositol 3-kinase catalytic subunit type 3 (Homo sapiens) (UniProt Q8NEB9); settings: Compound concentration 1000.0 nM
[11] = biological target: Dual specificity tyrosine-phosphorylation-regulated kinase 2 (Homo sapiens) (UniProt Q92630); settings: Compound concentration 1000.0 nM
[12] = biological target: Mitogen-activated protein kinase 6 (Homo sapiens) (UniProt Q16659); settings: Compound concentration 1000.0 nM
[13] = biological target: Tyrosine-protein kinase ABL2 (Homo sapiens) (UniProt P42684); settings: Compound concentration 1000.0 nM
[14] = tested on: Tyrosine-protein kinase ABL1 (Homo sapiens), P00519 [T315I]; settings: Compound concentration 1000.0 nM
[15] = biological target: Tyrosine-protein kinase JAK1 (Homo sapiens) (UniProt P23458); settings: Compound concentration 1000.0 nM
[16] = biological target: Ephrin type-A receptor 3 (Homo sapiens) (UniProt P29320); settings: Compound concentration 1000.0 nM
[17] = biological target: D(3) dopamine receptor (Homo sapiens) (UniProt P35462); settings: Compound concentration 10.0 uM
[18] = biological target: Cyclin-dependent kinase-like 5 (Homo sapiens) (UniProt O76039); settings: Compound concentration 1000.0 nM
[19] = biological target: Ribosomal protein S6 kinase alpha-4 (Homo sapiens) (UniProt O75676); settings: Compound concentration 1000.0 nM
[20] = biological target: Muscarinic acetylcholine receptor M5 (Homo sapiens) (UniProt P08912); settings: Compound concentration 10.0 uM
[21] = biological target: Serine/threonine-protein kinase 36 (Homo sapiens) (UniProt Q9NRP7); settings: Compound concentration 1000.0 nM
[22] = biological target: Myosin light chain kinase (Homo sapiens) (UniProt Q32MK0); settings: Compound concentration 1000.0 nM
[23] = biological target: Serine/threonine-protein kinase 26 (Homo sapiens) (UniProt Q9P289); settings: Compound concentration 1000.0 nM
[24] = tested on: Tyrosine-protein kinase ABL1 (Homo sapiens), P00519 [E255K]; settings: Compound concentration 1000.0 nM
[25] = biological target: Histamine H4 receptor (Homo sapiens) (UniProt Q9H3N8); settings: Compound concentration 10.0 uM
[26] = biological target: Fibroblast growth factor receptor 4 (Homo sapiens) (UniProt P22455); settings: Compound concentration 1000.0 nM
[27] = tested on: Epidermal growth factor receptor (Homo sapiens), P00533 [UNDEFINED MUTATION]; settings: Compound concentration 1000.0 nM
[28] = biological target: Maternal embryonic leucine zipper kinase (Homo sapiens) (UniProt Q14680); settings: Compound concentration 1000.0 nM
[29] = biological target: 5'-AMP-activated protein kinase catalytic subunit alpha-1 (Homo sapiens) (UniProt Q13131); settings: Compound concentration 1000.0 nM
[30] = biological target: MAP/microtubule affinity-regulating kinase 4 (Homo sapiens) (UniProt Q96L34); settings: Compound concentration 1000.0 nM
[31] = biological target: Receptor-interacting serine/threonine-protein kinase 2 (Homo sapiens) (UniProt O43353); settings: Compound concentration 1000.0 nM
[32] = biological target: Protein-tyrosine kinase 2-beta (Homo sapiens) (UniProt Q14289); settings: Compound concentration 1000.0 nM
[33] = biological target: NUAK family SNF1-like kinase 1 (Homo sapiens) (UniProt O60285); settings: Compound concentration 1000.0 nM
[34] = tested on: Phosphatidylinositol 4,5-bisphosphate 3-kinase catalytic subunit alpha isoform (Homo sapiens), P42336 [H1047Y]; settings: Compound concentration 1000.0 nM
[35] = tested on: Proto-oncogene tyrosine-protein kinase receptor Ret (Homo sapiens), P07949 [V804M]; settings: Compound concentration 1000.0 nM
[36] = biological target: Macrophage colony-stimulating factor 1 receptor (Homo sapiens) (UniProt P07333); settings: Compound concentration 1000.0 nM
[37] = biological target: Serine/threonine-protein kinase TAO1 (Homo sapiens) (UniProt Q7L7X3); settings: Compound concentration 1000.0 nM
[38] = biological target: Cyclin-dependent kinase 18 (Homo sapiens) (UniProt Q07002); settings: Compound concentration 1000.0 nM
[39] = biological target: Mast/stem cell growth factor receptor Kit (Homo sapiens) (UniProt P10721); settings: Compound concentration 1000.0 nM
[40] = biological target: Calcium/calmodulin-dependent protein kinase type 1B (Homo sapiens) (UniProt Q6P2M8); settings: Compound concentration 1000.0 nM
[41] = biological target: Phosphatidylinositol 4,5-bisphosphate 3-kinase catalytic subunit delta isoform (Homo sapiens) (UniProt O00329); settings: Compound concentration 1000.0 nM
[42] = biological target: Serine/threonine-protein kinase TBK1 (Homo sapiens) (UniProt Q9UHD2); settings: Compound concentration 1000.0 nM
[43] = tested on: Mast/stem cell growth factor receptor Kit (Homo sapiens), P10721 [L576P]; settings: Compound concentration 1000.0 nM
[44] = biological target: Alpha-1D adrenergic receptor (Homo sapiens) (UniProt P25100); settings: Compound concentration 10.0 uM
[45] = biological target: Phosphatidylinositol 5-phosphate 4-kinase type-2 beta (Homo sapiens) (UniProt P78356); settings: Compound concentration 1000.0 nM

Sequence of Alpha-1D adrenergic receptor (Homo sapiens) (P25100 whole entry): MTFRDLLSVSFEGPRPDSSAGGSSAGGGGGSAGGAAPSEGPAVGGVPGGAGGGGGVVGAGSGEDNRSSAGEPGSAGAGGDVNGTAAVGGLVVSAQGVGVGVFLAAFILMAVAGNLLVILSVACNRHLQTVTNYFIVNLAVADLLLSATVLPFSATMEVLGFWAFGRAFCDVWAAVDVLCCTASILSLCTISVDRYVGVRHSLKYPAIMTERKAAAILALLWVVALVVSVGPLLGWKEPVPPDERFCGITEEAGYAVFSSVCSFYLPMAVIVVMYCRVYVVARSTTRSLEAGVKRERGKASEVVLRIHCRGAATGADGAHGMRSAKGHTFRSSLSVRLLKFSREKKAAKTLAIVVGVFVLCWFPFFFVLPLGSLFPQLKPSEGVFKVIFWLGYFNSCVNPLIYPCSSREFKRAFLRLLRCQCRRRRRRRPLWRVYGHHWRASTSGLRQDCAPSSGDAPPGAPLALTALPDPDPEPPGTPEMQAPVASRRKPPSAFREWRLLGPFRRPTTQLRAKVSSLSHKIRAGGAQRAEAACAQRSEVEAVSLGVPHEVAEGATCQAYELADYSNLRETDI
Sequence of Fibroblast growth factor receptor 4 (Homo sapiens) (P22455 22-802 limits assumed): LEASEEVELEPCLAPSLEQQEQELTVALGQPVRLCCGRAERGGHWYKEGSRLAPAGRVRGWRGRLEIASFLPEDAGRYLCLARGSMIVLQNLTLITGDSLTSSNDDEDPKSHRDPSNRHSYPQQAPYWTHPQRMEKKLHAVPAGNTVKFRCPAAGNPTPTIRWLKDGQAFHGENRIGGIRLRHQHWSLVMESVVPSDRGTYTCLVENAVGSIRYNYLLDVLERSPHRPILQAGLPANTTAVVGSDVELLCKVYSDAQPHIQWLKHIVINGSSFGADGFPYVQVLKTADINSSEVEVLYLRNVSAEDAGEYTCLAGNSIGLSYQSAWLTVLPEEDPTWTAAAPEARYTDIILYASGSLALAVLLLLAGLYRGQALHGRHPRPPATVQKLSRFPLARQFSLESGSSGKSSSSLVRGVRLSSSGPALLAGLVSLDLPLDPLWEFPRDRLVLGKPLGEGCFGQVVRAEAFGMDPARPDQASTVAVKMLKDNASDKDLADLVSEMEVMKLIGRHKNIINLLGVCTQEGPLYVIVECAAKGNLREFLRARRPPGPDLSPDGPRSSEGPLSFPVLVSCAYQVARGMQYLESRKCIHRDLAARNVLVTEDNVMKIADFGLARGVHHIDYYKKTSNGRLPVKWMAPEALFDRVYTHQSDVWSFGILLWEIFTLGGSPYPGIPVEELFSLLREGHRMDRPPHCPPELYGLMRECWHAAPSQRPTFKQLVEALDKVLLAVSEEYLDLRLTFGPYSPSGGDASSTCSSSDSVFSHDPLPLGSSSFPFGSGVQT
Sequence of Dual specificity protein kinase TTK (Homo sapiens) (P33981 whole entry): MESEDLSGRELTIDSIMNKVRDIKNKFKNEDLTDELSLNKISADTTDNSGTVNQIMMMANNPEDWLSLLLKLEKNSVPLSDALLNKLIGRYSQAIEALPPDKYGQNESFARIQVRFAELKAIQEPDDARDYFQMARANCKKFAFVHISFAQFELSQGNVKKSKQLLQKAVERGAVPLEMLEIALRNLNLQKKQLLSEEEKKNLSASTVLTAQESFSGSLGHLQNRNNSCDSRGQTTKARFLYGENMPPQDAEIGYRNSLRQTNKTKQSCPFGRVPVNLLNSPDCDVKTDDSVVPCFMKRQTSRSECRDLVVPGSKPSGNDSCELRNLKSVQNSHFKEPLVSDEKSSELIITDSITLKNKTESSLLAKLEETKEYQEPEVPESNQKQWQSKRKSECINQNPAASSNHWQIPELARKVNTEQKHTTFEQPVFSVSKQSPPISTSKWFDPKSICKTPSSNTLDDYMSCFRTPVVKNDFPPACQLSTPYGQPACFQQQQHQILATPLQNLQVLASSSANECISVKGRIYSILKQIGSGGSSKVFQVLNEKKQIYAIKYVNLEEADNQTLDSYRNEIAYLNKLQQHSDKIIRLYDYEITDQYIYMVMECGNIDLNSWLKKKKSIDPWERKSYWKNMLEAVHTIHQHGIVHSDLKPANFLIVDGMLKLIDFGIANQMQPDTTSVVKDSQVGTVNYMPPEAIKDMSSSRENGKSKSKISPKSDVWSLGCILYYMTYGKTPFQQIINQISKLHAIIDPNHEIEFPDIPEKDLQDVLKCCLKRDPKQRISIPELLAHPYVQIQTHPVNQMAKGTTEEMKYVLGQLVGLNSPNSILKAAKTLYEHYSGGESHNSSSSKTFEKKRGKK
Sequence of Myosin-IIIa (Homo sapiens) (Q8NEV4 whole entry): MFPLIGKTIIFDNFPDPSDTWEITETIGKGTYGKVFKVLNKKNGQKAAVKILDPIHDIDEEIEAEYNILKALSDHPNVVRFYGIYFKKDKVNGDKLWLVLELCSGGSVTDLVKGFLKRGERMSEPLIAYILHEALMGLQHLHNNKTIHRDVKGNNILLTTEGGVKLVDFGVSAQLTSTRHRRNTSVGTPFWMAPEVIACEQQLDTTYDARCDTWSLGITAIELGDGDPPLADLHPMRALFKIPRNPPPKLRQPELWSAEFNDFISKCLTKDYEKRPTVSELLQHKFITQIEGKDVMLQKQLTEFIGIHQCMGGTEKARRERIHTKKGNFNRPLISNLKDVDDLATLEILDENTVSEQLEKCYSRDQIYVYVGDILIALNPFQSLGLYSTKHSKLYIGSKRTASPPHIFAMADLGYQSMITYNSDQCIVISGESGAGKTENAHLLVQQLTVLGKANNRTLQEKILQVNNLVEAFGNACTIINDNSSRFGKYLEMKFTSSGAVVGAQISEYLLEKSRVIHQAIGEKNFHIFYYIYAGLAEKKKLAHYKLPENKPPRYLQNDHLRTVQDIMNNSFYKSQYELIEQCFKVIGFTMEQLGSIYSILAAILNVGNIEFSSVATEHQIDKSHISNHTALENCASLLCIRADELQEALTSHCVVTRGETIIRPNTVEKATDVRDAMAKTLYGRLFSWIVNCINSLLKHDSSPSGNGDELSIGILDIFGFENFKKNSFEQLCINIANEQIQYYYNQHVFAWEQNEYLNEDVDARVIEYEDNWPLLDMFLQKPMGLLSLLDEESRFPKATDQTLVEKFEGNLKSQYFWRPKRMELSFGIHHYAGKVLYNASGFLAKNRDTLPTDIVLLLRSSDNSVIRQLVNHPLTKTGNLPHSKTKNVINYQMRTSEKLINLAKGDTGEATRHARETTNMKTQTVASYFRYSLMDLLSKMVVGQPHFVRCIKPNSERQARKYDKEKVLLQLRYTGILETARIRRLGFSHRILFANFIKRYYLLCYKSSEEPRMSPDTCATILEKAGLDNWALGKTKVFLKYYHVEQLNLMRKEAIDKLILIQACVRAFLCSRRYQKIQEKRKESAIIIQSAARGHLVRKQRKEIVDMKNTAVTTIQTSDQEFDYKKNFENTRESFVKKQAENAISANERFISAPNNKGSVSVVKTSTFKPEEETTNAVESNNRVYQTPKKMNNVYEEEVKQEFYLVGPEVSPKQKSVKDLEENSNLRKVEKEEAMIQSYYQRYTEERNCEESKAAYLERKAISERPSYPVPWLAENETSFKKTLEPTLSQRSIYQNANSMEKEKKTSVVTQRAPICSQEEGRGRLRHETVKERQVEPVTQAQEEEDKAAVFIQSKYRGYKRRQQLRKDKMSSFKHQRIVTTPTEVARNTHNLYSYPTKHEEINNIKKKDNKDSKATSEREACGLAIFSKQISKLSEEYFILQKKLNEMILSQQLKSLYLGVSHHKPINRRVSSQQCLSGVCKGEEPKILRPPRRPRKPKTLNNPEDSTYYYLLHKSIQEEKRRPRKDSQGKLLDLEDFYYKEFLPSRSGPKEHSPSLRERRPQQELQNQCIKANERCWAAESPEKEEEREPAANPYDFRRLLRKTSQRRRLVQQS
Sequence of Dual specificity tyrosine-phosphorylation-regulated kinase 2 (Homo sapiens) (Q92630 whole entry): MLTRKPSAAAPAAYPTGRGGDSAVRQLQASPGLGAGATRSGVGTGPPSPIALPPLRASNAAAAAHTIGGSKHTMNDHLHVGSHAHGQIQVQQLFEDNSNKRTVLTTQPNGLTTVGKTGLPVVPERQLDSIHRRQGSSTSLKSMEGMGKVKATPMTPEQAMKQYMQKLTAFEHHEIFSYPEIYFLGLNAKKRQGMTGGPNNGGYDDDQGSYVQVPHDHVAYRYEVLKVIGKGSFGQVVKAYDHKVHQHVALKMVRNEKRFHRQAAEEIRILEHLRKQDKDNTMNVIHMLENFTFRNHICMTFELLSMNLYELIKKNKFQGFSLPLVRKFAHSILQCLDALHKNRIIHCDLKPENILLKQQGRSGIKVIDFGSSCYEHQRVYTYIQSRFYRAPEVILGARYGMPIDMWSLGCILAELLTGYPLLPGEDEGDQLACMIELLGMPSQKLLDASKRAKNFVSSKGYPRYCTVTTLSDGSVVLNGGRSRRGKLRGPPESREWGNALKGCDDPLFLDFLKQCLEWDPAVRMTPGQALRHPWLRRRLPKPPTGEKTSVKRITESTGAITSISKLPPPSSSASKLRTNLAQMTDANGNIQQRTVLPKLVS
Sequence of Serine/threonine-protein kinase pim-1 (Homo sapiens) (P11309 whole entry, looked up): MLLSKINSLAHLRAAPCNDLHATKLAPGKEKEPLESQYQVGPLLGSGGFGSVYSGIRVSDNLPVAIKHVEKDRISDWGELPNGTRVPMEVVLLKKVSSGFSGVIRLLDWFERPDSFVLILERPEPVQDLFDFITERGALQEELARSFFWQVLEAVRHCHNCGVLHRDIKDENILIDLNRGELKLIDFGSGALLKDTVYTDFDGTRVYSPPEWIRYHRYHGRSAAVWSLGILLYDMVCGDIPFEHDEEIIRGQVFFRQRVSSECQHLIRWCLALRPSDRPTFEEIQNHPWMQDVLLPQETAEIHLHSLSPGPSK

O=C(NC[C@@H]1[C@H]2CN(C(=O)OCc3cc(C(F)(F)F)cc(C(F)(F)F)c3)C[C@@H]12)c1ccc2[nH]nnc2c1 [BI 2545]
inactive: residual activity [1] 98% | residual activity [2] 91% | residual activity [3] 82% | residual activity [4] 100% | residual activity [5] 98% | residual activity [6] 83% | inhibition [7] 43.2% | residual activity [8] 68% | residual activity [9] 100% | residual activity [10] 72% | residual activity [11] 77% | residual activity [12] 88% | residual activity [13] 98% | residual activity [14] 93% | residual activity [15] 100% | residual activity [16] 100% | inhibition [17] 6.61% | residual activity [18] 100% | residual activity [19] 100% | inhibition [20] 15.3% | residual activity [21] 100% | residual activity [22] 98% | residual activity [23] 76% | residual activity [24] 92% | inhibition [25] 39.5% | residual activity [26] 82% | residual activity [27] 72% | residual activity [28] 97% | residual activity [29] 100% | residual activity [30] 94% | residual activity [31] 64% | residual activity [32] 85% | residual activity [33] 87% | residual activity [34] 62% | residual activity [35] 88% | residual activity [36] 99% | residual activity [37] 78% | residual activity [38] 100% | residual activity [39] 89% | residual activity [40] 100% | residual activity [41] 75% | residual activity [42] 100% | residual activity [43] 92% | inhibition [44] -1.41% | residual activity [45] 100%

Cc1nccc(COC(=O)N2C[C@@H]3[C@@H](CNC(=O)c4ccc5[nH]nnc5c4)[C@@H]3C2)n1 [BI 3017]
inactive: residual activity [1] 96% | residual activity [2] 89% | residual activity [3] 69% | residual activity [4] 93% | residual activity [5] 99% | residual activity [6] 100% | inhibition [7] 23% | residual activity [8] 87% | residual activity [9] 100% | residual activity [10] 94% | residual activity [11] 94% | residual activity [12] 93% | residual activity [13] 90% | residual activity [14] 95% | residual activity [15] 85% | residual activity [16] 93% | inhibition [17] 1.07% | residual activity [18] 87% | residual activity [19] 100% | inhibition [20] -9.7% | residual activity [21] 92% | residual activity [22] 97% | residual activity [23] 77% | residual activity [24] 89% | inhibition [25] 7.45% | residual activity [26] 81% | residual activity [27] 100% | residual activity [28] 100% | residual activity [29] 92% | residual activity [30] 85% | residual activity [31] 100% | residual activity [32] 100% | residual activity [33] 82% | residual activity [34] 82% | residual activity [35] 100% | residual activity [36] 88% | residual activity [37] 85% | residual activity [38] 100% | residual activity [39] 89% | residual activity [40] 83% | residual activity [41] 85% | residual activity [42] 96% | residual activity [43] 89% | inhibition [44] -6.43% | residual activity [45] 100%
